Data published in patent US11427548B2 (Arvinas Operations, Inc., priority 2015, dated 2022).

Target: T1, Androgen Receptor (Homo sapiens, UniProt P10275+P40337, T878A)
T1 construct: Compounds have been evaluated in this assay in LNCaP and/or VCaP cells utilizing similar protocols; endogenous in cells; host or cells: LNCaP cells
Test: Androgen Receptor ELISA assay (PathScan AR ELISA) in LNCaP cells: AR degradation, Dmax and DC50
Type: cell-based
Details: for DC50: concentration that caused 50% Androgen Receptor degradation

[1] = highest percentage of Androgen Receptor degradation observed
[2] = highest percentage of Androgen Receptor degradation

T1 sequence (P10275 whole entry T878A): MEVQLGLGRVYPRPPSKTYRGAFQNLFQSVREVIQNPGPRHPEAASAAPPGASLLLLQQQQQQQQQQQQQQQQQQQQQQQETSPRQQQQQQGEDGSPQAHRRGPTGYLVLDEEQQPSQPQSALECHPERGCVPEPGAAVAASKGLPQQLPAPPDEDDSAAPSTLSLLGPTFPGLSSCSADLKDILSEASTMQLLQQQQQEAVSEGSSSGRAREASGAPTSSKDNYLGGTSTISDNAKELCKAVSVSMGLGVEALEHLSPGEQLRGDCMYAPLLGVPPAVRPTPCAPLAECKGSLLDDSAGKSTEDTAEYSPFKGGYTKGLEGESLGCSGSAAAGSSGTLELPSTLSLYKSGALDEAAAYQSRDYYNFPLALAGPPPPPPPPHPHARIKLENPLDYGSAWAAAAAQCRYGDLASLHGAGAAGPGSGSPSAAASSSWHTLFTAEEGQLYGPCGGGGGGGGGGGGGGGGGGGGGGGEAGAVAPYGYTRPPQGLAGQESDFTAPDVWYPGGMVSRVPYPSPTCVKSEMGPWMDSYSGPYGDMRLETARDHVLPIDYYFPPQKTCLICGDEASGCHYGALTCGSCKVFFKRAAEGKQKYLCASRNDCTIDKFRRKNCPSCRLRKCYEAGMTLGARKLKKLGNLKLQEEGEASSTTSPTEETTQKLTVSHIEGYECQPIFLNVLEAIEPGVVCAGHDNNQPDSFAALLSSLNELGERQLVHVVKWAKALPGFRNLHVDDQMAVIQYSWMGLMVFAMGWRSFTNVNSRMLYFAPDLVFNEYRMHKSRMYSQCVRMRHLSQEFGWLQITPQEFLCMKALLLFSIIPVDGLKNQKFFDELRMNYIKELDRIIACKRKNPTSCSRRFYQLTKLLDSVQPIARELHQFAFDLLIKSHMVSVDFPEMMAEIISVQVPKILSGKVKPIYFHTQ
T1 sequence (P40337 whole entry): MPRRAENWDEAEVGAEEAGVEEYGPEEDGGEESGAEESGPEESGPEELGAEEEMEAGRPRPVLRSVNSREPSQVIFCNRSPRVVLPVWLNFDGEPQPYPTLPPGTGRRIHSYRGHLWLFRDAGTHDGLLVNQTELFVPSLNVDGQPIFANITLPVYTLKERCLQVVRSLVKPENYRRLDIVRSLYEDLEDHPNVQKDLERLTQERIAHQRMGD
T1 sequence (Q15369 whole entry partner): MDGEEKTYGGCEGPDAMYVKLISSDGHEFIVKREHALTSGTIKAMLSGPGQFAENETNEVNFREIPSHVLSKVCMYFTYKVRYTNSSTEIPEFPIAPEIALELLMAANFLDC
T1 sequence (Q15370 whole entry partner): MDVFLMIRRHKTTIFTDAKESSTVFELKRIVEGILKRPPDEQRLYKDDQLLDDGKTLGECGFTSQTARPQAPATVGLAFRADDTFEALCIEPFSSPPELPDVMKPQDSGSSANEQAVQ

SMILES | DC50 [µM] | Dmax [1] [%] | Dmax [2] [%]
Cc1ncsc1-c1ccc(CNC(=O)[C@@H]2C[C@@H](O)CN2C(=O)[C@H](C(C)C)N2Cc3ccc(F)cc3C2=O)c(OCCOCCOCCOc2ccc(N3C(=S)N(c4ccc(C#N)c(C(F)(F)F)c4)C(=O)C3(C)C)cc2)c1 [Example 83, (2S,4R)-N-{[2-(2-{2-[2-(4-{3-[4-cyano-3-(trifluoromethyl)phenyl]-5,5-dimethyl-4-oxo-2-sulfanylideneimidazolidin-1-yl}phenoxy)ethoxy]ethoxy}ethoxy)-4-(4-methyl-1,3-thiazol-5-yl)phenyl]methyl}-1-[(2S)-2-(6-fluoro-1-oxo-2,3-dihydro-1H-isoindol-2-yl)-3-methylbutanoyl]-4-hydroxypyrrolidine-2-carboxamide] | 0.051 to 0.5 | 51 to 70 | 
Cc1ncsc1-c1ccc(CNC(=O)[C@@H]2C[C@@H](O)CN2C(=O)[C@H](C(C)C)N2Cc3cccc(C#N)c3C2=O)c(OCCOCCOCCOc2ccc(N3C(=S)N(c4ccc(C#N)c(C(F)(F)F)c4)C(=O)C3(C)C)cc2)c1 [Example 84] | 0.051 to 0.5 | 51 to 70 | 
Cc1ncsc1-c1ccc(CNC(=O)[C@@H]2C[C@@H](O)CN2C(=O)[C@H](C(C)C)N2Cc3ccccc3C2=O)c(OCCO[C@H](C)[C@@H](C)OCCOc2ccc(N3C(=S)N(c4ccc(C#N)c(C(F)(F)F)c4)C(=O)C3(C)C)cc2)c1 [Example 85, (2S,4R)-N-{[2-(2-{[(2R,3R)-3-[2-(4-{3-[4-cyano-3-(trifluoromethyl)phenyl]-5,5-dimethyl-4-oxo-2-sulfanylideneimidazolidin-1-yl}phenoxy)ethoxy]butan-2-yl]oxy}ethoxy)-4-(4-methyl-1,3-thiazol-5-yl)phenyl]methyl}-4-hydroxy-1-[(2S)-3-methyl-2-(1-oxo-2,3-dihydro-1H-isoindol-2-yl)butanoyl]pyrrolidine-2-carboxamide] | > 0.501 | 51 to 70 | 
Cc1ncsc1-c1ccc(CNC(=O)[C@@H]2C[C@@H](O)CN2C(=O)[C@H](C(C)C)N2Cc3ccccc3C2=O)c(OCCCOCCOCCOc2ccc(N3C(=S)N(c4ccc(C#N)c(C(F)(F)F)c4)C(=O)C3(C)C)cc2)c1 [Example 205] | > 0.501 |  | < 25
Cc1ncsc1-c1ccc(CNC(=O)[C@@H]2C[C@@H](O)CN2C(=O)[C@H](C(C)C)N2Cc3ccccc3C2=O)c(OCCOCCOc2ccc(N3C(=S)N(c4ccc(C#N)c(C(F)(F)F)c4)C(=O)C3(C)C)cc2)c1 [Example 206] | 0.051 to 0.5 |  | 51 to 70
Cc1ncsc1-c1ccc(CNC(=O)[C@@H]2C[C@@H](O)CN2C(=O)[C@H](C(C)C)N2Cc3ccccc3C2=O)c(OCCCCOCCCCOCCCCOc2ccc(N3C(=S)N(c4ccc(C#N)c(C(F)(F)F)c4)C(=O)C3(C)C)cc2)c1 [Example 207] | 0.051 to 0.5 |  | 26 to 50
Cc1ncsc1-c1ccc(CNC(=O)[C@@H]2C[C@@H](O)CN2C(=O)[C@H](C(C)C)N2Cc3ccccc3C2=O)c(OCCOCCOCCOCCOc2ccc(N3C(=S)N(c4ccc(C#N)c(C(F)(F)F)c4)C(=O)C3(C)C)cc2)c1 [Example 210] | > 0.501 |  | 26 to 50
Cc1ncsc1-c1ccc(CNC(=O)[C@@H]2C[C@@H](O)CN2C(=O)[C@H](C(C)C)N2Cc3ccccc3C2=O)c(OCCOCCOCCOCCOCCOc2ccc(N3C(=S)N(c4ccc(C#N)c(C(F)(F)F)c4)C(=O)C3(C)C)cc2)c1 [Example 211] | 0.051 to 0.5 |  | 26 to 50
Cc1ncsc1-c1ccc(CNC(=O)[C@@H]2C[C@@H](O)CN2C(=O)[C@@H](NC(=O)COCCOCCOCCOCCOCCOCCOc2ccc(N3C(=S)N(c4ccc(C#N)c(C(F)(F)F)c4)C(=O)C3(C)C)cc2)C(C)(C)C)cc1 [Example 212] | > 0.501 |  | > 71
Cc1ncsc1-c1ccc(CNC(=O)[C@@H]2C[C@@H](O)CN2C(=O)[C@H](C(C)C)N2Cc3ccccc3C2=O)c(OCCOCCOCCCOCCOCCOc2ccc(N3C(=S)N(c4ccc(C#N)c(C(F)(F)F)c4)C(=O)C3(C)C)cc2)c1 [Example 214] | 0.051 to 0.5 |  | 51 to 70
Cc1ncsc1-c1ccc(CNC(=O)[C@@H]2C[C@@H](O)CN2C(=O)[C@H](C(C)C)N2Cc3ccccc3C2=O)c(OCCOCCOCCCCOCCOCCOc2ccc(N3C(=S)N(c4ccc(C#N)c(C(F)(F)F)c4)C(=O)C3(C)C)cc2)c1 [Example 215] | 0.051 to 0.5 |  | 26 to 50
Cc1ncsc1-c1ccc(CNC(=O)[C@@H]2C[C@@H](O)CN2C(=O)[C@@H](NC(=O)COCCOCCOCCCOCCOCCOc2ccc(N3C(=S)N(c4ccc(C#N)c(C(F)(F)F)c4)C(=O)C3(C)C)cc2)C(C)(C)C)cc1 [Example 216] | 0.051 to 0.5 |  | 51 to 70
Cc1ncsc1-c1ccc(CNC(=O)[C@@H]2C[C@@H](O)CN2C(=O)[C@@H](NC(=O)COCCOCCOCCCCOCCOCCOc2ccc(N3C(=S)N(c4ccc(C#N)c(C(F)(F)F)c4)C(=O)C3(C)C)cc2)C(C)(C)C)cc1 [Example 217] | < 0.05 |  | 51 to 70
Cc1ncsc1-c1ccc(CNC(=O)[C@@H]2C[C@@H](O)CN2C(=O)[C@H](C(C)C)N2Cc3ccccc3C2=O)c(OCCOCCOCCCCCOCCOCCOc2ccc(N3C(=S)N(c4ccc(C#N)c(C(F)(F)F)c4)C(=O)C3(C)C)cc2)c1 [Example 218] |  |  | 26 to 50
Cc1ncsc1-c1ccc(CNC(=O)[C@@H]2C[C@@H](O)CN2C(=O)[C@H](C(C)C)N2Cc3ccccc3C2=O)c(OCCOCCOCCCCOCCCCOCCOCCOc2ccc(N3C(=S)N(c4ccc(C#N)c(C(F)(F)F)c4)C(=O)C3(C)C)cc2)c1 [Example 219] |  |  | > 71
Cc1ncsc1-c1ccc(CNC(=O)[C@@H]2C[C@@H](O)CN2C(=O)[C@H](C(C)C)N2Cc3ccccc3C2=O)c(OCCOCCOCCCCCOCCCCCOCCOCCOc2ccc(N3C(=S)N(c4ccc(C#N)c(C(F)(F)F)c4)C(=O)C3(C)C)cc2)c1 [Example 220] |  |  | 51 to 70

SMILES | DC50 [µM] | Dmax [1] [%] | Dmax [2] [%]
Cc1ncsc1-c1ccc(CNC(=O)[C@@H]2C[C@@H](O)CN2C(=O)[C@@H](NC(=O)COCCOCCOCCCCCOCCOCCOc2ccc(N3C(=S)N(c4ccc(C#N)c(C(F)(F)F)c4)C(=O)C3(C)C)cc2)C(C)(C)C)cc1 [Example 222] |  |  | 26 to 50
Cc1ncsc1-c1ccc(CNC(=O)[C@@H]2C[C@@H](O)CN2C(=O)[C@@H](NC(=O)COCCOCCCCOCCCCOCCOCCOc2ccc(N3C(=S)N(c4ccc(C#N)c(C(F)(F)F)c4)C(=O)C3(C)C)cc2)C(C)(C)C)cc1 [Example 223] |  |  | 26 to 50
Cc1ncsc1-c1ccc(CNC(=O)[C@@H]2C[C@@H](O)CN2C(=O)[C@@H](NC(=O)COCCOCCCCCOCCCCCOCCOCCOc2ccc(N3C(=S)N(c4ccc(C#N)c(C(F)(F)F)c4)C(=O)C3(C)C)cc2)C(C)(C)C)cc1 [Example 224] |  |  | 26 to 50
Cc1ncsc1-c1ccc(CNC(=O)[C@@H]2C[C@@H](O)CN2C(=O)[C@@H](NC(=O)COCCOCCOCCCCCOc2ccc(N3C(=S)N(c4ccc(C#N)c(C(F)(F)F)c4)C(=O)C3(C)C)cc2)C(C)(C)C)cc1 [Example 225] | < 0.05 |  | 51 to 70
Cc1ncsc1-c1ccc(CNC(=O)[C@@H]2C[C@@H](O)CN2C(=O)[C@@H](NC(=O)CCCCCOCCCCOCCCCOc2ccc(N3C(=S)N(c4ccc(C#N)c(C(F)(F)F)c4)C(=O)C3(C)C)cc2)C(C)(C)C)cc1 [Example 227] | < 0.05 |  | 26 to 50
Cc1ncsc1-c1ccc(CNC(=O)[C@@H]2C[C@@H](O)CN2C(=O)[C@@H](NC(=O)CCOCCOCCCCCOc2ccc(N3C(=S)N(c4ccc(C#N)c(C(F)(F)F)c4)C(=O)C3(C)C)cc2)C(C)(C)C)cc1 [Example 228] | 0.051 to 0.5 |  | 51 to 70
Cc1ncsc1-c1ccc(CNC(=O)[C@@H]2C[C@H](O)CN2C(=O)[C@H](C(C)C)N2Cc3ccccc3C2=O)c(OCCOCCOCCOc2ccc(N3C(=S)N(c4ccc(C#N)c(C(F)(F)F)c4)C(=O)C3(C)C)cc2)c1 [Example 229] | 0.051 to 0.5 |  | 51 to 70
Cc1ncsc1-c1ccc(CNC(=O)[C@@H]2C[C@@H](O)CN2C(=O)[C@@H](NC(=O)CCNC(=O)CCCc2ccc(N3C(=S)N(c4ccc(C#N)c(C(F)(F)F)c4)C(=O)C3(C)C)cc2)C(C)(C)C)cc1 [Example 231] | > 0.501 |  | 51 to 70
Cc1ncsc1-c1ccc(CNC(=O)[C@@H]2C[C@@H](O)CN2C(=O)[C@@H](NC(=O)CCOCCNC(=O)CCCc2ccc(N3C(=S)N(c4ccc(C#N)c(C(F)(F)F)c4)C(=O)C3(C)C)cc2)C(C)(C)C)cc1 [Example 232] | > 0.501 |  | 26 to 50
Cc1ncsc1-c1ccc(CNC(=O)[C@@H]2C[C@@H](O)CN2C(=O)[C@@H](NC(=O)CCOCCOc2ccc(N3C(=S)N(c4ccc(C#N)c(C(F)(F)F)c4)C(=O)C3(C)C)cc2)C(C)(C)C)cc1 [Example 233] | > 0.501 |  | 51 to 70
Cc1ncsc1-c1ccc(CNC(=O)C2C[C@@H](OC(C)(C)C)CN2C(=O)[C@H](C(C)C)N2Cc3ccccc3C2=O)c(OCCOCCOCCOc2ccc(N3C(=O)N(c4ccc(C#N)c(C(F)(F)F)c4)C(=O)C3(C)C)cc2)c1 (stereo partly shown) [Example 234] | 0.051 to 0.5 |  | 26 to 50
Cc1ncsc1-c1ccc(CNC(=O)C2C[C@@H](O)CN2C(=O)[C@H](C(C)C)N2Cc3ccccc3C2=O)c(OCCOCCOCCOc2ccc(N3C(=O)N(c4ccc(C#N)c(C(F)(F)F)c4)C(=O)C3(C)C)cc2)c1 (stereo partly shown) [Example 235] | 0.051 to 0.5 |  | 51 to 70
Cc1ncsc1-c1ccc(CNC(=O)[C@@H]2C[C@@H](O)CN2C(=O)[C@@H](NC(=O)COCCOc2ccc(N3C(=S)N(c4ccc(C#N)c(C(F)(F)F)c4)C(=O)C3(C)C)cc2)C(C)(C)C)cc1 [Example 236] | > 0.501 |  | 26 to 50
Cc1ncsc1-c1ccc(CNC(=O)[C@@H]2C[C@@H](O)CN2C(=O)[C@@H](NC(=O)CCCOc2ccc(N3C(=S)N(c4ccc(C#N)c(C(F)(F)F)c4)C(=O)C3(C)C)cc2)C(C)(C)C)cc1 [Example 237] | > 0.501 |  | 26 to 50
Cc1ncsc1-c1ccc(CNC(=O)[C@@H]2C[C@@H](O)CN2C(=O)[C@@H](NC(=O)OCCOCCCOCCOc2ccc(N3C(=S)N(c4ccc(C#N)c(C(F)(F)F)c4)C(=O)C3(C)C)cc2)C(C)(C)C)cc1 [Example 239] | < 0.05 |  | 51 to 70
Cc1ncsc1-c1ccc(CNC(=O)[C@@H]2C[C@@H](O)CN2C(=O)[C@@H](NC(=O)COCCOCCCOCCOc2ccc(N3C(=S)N(c4ccc(C#N)c(C(F)(F)F)c4)C(=O)C3(C)C)cc2)C(C)(C)C)cc1 [Example 240] | < 0.05 |  | 51 to 70
